Assay results taken from patent US9113629B2, “4-amino-6-(4-substituted-phenyl)-picolinates and 6-amino-2-(4-substituted-phenyl)-pyrimidine-4-carboxylates and their use as herbicides” (DOW AGROSCIENCES LLC, priority 2013, dated 2015).
Read-outs that look alike come from different tables or passages of the source.

Test system: test plant species in Direct Seeded Rice
Assay: Postemergence herbicidal activity in direct seeded rice (Table 13)
Type: in vivo
Details: for GR50 BRAPP / GR80 BRAPP / GR50 CYPSS / GR80 CYPSS / GR50 ECHSS / GR80 ECHSS / GR50 LEFSS / GR80 LEFSS / GR20 ORYSS / GR50 SCPJU / GR80 SCPJU / GR50 SEBEX / GR80 SEBEX: probit analysis; for GR20 ORYSS: ORYSS: Oryza sativa (crop); for pest or weed control at 35 g/ha / pest or weed control at 70 g/ha: post-emergence, 504 h; for pest or weed control at 35 g/ha: 35 g ai/ha; for pest or weed control at 70 g/ha: 70 g ai/ha
Excerpt: Seeds or nutlets of the desired test plant species were planted in a soil matrix prepared by mixing a loam soil (43 percent silt, 19 percent clay, and 38 percent sand, with a pH of about 8.1 and an organic matter content of about 1.5 percent) and river sand in an 80 to 20 ratio. The soil matrix was contained in plastic pots with a surface area of 139.7 cm^2. When required to ensure good germination and healthy plants, a fungicide treatment and/or other chemical or physical treatment was applied. The plants were grown for 10-17 d in a greenhouse with an approximate 14-h photoperiod which was maintained at about 29° C. during the day and 26° C. during the night. Nutrients and water were added on a regular basis and supplemental lighting was provided with overhead metal halide 1000-Watt lamps as necessary. The plants were employed for testing when they reached the second or third true leaf stage. A weighed amount, determined by the highest rate to be tested, of each test compound was placed in 25 mL glass vials and dissolved in a volume of 97:3 v/v acetone-DMSO to obtain 12× stock solutions. […] The concentrated stock solutions were added to the spray solutions so that the final acetone and DMSO concentrations were 16.2% and 0.5%, respectively. Spray solutions were diluted to the appropriate final concentrations with the addition of 10 mL of an aqueous mixture of 1.5% (v/v) Agri-dex crop oil concentrate. […] Compound requirements are based upon a 12 mL application volume at a rate of 187 L/ha. Formulated compounds were applied to the plant material with an overhead Mandel track sprayer equipped with […] nozzles calibrated to deliver 187 L/ha over an application area of 0.503 square meters (m^2) at a spray height of 18 inches (43 cm) above average plant canopy height. Control plants were sprayed in the same manner with the solvent blank. The treated plants and control plants were placed in a greenhouse as described above and watered by sub-irrigation to prevent wash-off of the test compounds. After 20-22 days, the condition of the test plants, compared with that of the untreated plants, was determined visually and scored on a scale of 0 to 100 percent where 0 corresponds to no injury and 100 corresponds to complete kill. By applying the well-accepted probit analysis as described by J. Berkson in Journal of the American Statistical Society, 48, 565 (1953) and by D. Finney in “Probit Analysis” Cambridge University Press (1952), the above data can be used to calculate GR20, GR50, GR80 and GR90 values, which are defined as growth reduction factors that correspond to the effective dose of herbicide required to kill or control 20 percent, 50 percent, 80 percent or 90 percent, respectively, of a target plant.

[1] = BRAPP: broadleaf signalgrass, Brachiaria platyphylla
[2] = CYPSS: sedge (Cyperus difformis, esculentus, iria)
[3] = ECHSS: barnyardgrass (Echinochloa crus-galli), junglerice (Echinochloa colonum)
[4] = LEFSS: sprangletop (Leptochloa chinensis, Leptochloa dubia)
[5] = SCPJU: Japanese bulrush, Scirpus juncoides
[6] = SEBEX: hemp sesbania, Sesbania exaltata
[7] = BRAPP: broadleaf signalgrass, Brachiaria platyphylla, read-out: Visual Growth Reduction (%) 21 Days After Application BRAPP
[8] = CYPSS: sedge (Cyperus difformis, esculentus, iria), read-out: Visual Growth Reduction (%) 21 Days After Application CYPSS
[9] = ECHSS: barnyardgrass (Echinochloa crus-galli), junglerice (Echinochloa colonum), read-out: Visual Growth Reduction (%) 21 Days After Application ECHSS
[10] = LEFSS: sprangletop (Leptochloa chinensis, Leptochloa dubia), read-out: Visual Growth Reduction (%) 21 Days After Application LEFSS
[11] = ORYSS: Oryza sativa, read-out: Visual Growth Reduction (%) 21 Days After Application ORYSS
[12] = SCPJU: Japanese bulrush, Scirpus juncoides, read-out: Visual Growth Reduction (%) 21 Days After Application SCPJU
[13] = SEBEX: hemp sesbania, Sesbania exaltata, read-out: Visual Growth Reduction (%) 21 Days After Application SEBEX

Row | Structure (SMILES) | GR50 BRAPP [1] | GR80 BRAPP [1] | GR50 CYPSS [2] | GR80 CYPSS [2] | GR50 ECHSS [3] | GR80 ECHSS [3] | GR50 LEFSS [4] | GR80 LEFSS [4] | GR20 ORYSS | GR50 SCPJU [5] | GR80 SCPJU [5] | GR50 SEBEX [6] | GR80 SEBEX [6] | pest or weed control at 35 g/ha [7] | pest or weed control at 70 g/ha [7] | pest or weed control at 35 g/ha [8] | pest or weed control at 70 g/ha [8] | pest or weed control at 35 g/ha [9] | pest or weed control at 70 g/ha [9] | pest or weed control at 35 g/ha [10] | further results
1 | COC(=O)c1nc(-c2ccc(Br)cc2)c(Cl)c(N)c1Cl [Compound 47] | >70 g ai/ha | >70 g ai/ha | 1 g ai/ha | 3 g ai/ha | >70 g ai/ha | >70 g ai/ha | >70 g ai/ha | >70 g ai/ha | >70 g ai/ha | 1 g ai/ha | 1 g ai/ha | 1 g ai/ha | 1 g ai/ha | 30 to 44% | 30 to 44% | 95 to 100% | 95 to 100% | 30 to 44% | 0 to 29% | 75 to 84% | pest or weed control at 70 g/ha [10]: 0 to 29%; pest or weed control at 35 g/ha [11]: 0 to 29%; pest or weed control at 70 g/ha [11]: 0 to 29%; pest or weed control at 35 g/ha [12]: 95 to 100%; pest or weed control at 70 g/ha [12]: 95 to 100%; pest or weed control at 35 g/ha [13]: 95 to 100%; pest or weed control at 70 g/ha [13]: 95 to 100%
2 | COC(=O)c1nc(-c2ccc(I)cc2F)cc(N)c1Cl [Compound 159] | 3 g ai/ha | 8 g ai/ha | 2 g ai/ha | 5 g ai/ha | 2 g ai/ha | 4 g ai/ha | 12 g ai/ha | 19 g ai/ha | 12 g ai/ha | 1 g ai/ha | 1 g ai/ha | 1 g ai/ha | 1 g ai/ha | 95 to 100% | 95 to 100% | 95 to 100% | 95 to 100% | 95 to 100% | 95 to 100% | 95 to 100% | pest or weed control at 70 g/ha [10]: 95 to 100%; pest or weed control at 35 g/ha [11]: 45 to 59%; pest or weed control at 70 g/ha [11]: 60 to 74%; pest or weed control at 35 g/ha [12]: 95 to 100%; pest or weed control at 70 g/ha [12]: 95 to 100%; pest or weed control at 35 g/ha [13]: 95 to 100%; pest or weed control at 70 g/ha [13]: 95 to 100%
